These results are taken from ChEMBL document CHEMBL2163241, “Human neutrophil elastase phosphonic inhibitors with improved potency of action” (J Med Chem, 2012).

The target of test [1] is T1, Neutrophil elastase (Homo sapiens) (UniProt P08246).
T1 sequence (whole entry): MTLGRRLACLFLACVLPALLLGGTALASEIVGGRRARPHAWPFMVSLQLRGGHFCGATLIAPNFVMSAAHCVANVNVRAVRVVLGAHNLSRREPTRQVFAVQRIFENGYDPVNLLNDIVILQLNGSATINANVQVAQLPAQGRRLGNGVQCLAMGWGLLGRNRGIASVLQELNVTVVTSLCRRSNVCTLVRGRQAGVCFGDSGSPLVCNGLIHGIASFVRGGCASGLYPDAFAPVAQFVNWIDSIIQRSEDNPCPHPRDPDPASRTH
Put plainly: Inhibition of human leukocyte elastase at 25 uM assessed as Kinact/Ki ratio incubated for 15 mins by spectrofluorometry.

Test [2] can be described thus: Inhibition of chymotrypsin at 25 uM assessed as Kinact/Ki ratio incubated for 15 mins by spectrofluorometry.
In test [3] the target is Pancreatic elastase (Sus scrofa) (UniProt P08419+P00772). Description: Inhibition of porcine pancreatic elastase at 25 uM assessed as Kinact/Ki ratio incubated for 15 mins by spectrofluorometry. The test is classed as protein assay.
Test [4] can be described thus: Inhibition of trypsin at 25 uM assessed as Kinact/Ki ratio incubated for 15 mins by spectrofluorometry.

Take `COc1ccc(C(=O)N[C@H](C(=O)N2CCC[C@H]2C(=O)N[C@@H](C(C)C)P(=O)(Oc2ccc(SC)cc2)Oc2ccc(SC)cc2)C(C)C)cc1`: the Ratio in test [1] was 540000 M⁻¹ s⁻¹; in test [2] it was 100 M⁻¹ s⁻¹; in test [3] it was 6700 M⁻¹ s⁻¹; in test [4], under 50 M⁻¹ s⁻¹.

Take `COc1ccc(C(=O)N[C@H](C(=O)N2CCC[C@H]2C(=O)N[C@H](C(C)C)P(=O)(Oc2ccc(SC)cc2)Oc2ccc(SC)cc2)C(C)C)cc1`: the values for the Ratio in test [1], in test [2] and in test [3] were 4800 M⁻¹ s⁻¹, under 50 M⁻¹ s⁻¹ and under 50 M⁻¹ s⁻¹, respectively. Besides, the inhibition (in general, the relative decrease from the control value, in per cent) in test [4] is under 5%.

As for `CSc1ccc(OP(=O)(Oc2ccc(SC)cc2)[C@@H](NC(=O)[C@@H]2CCCN2C(=O)[C@@H](NC(=O)Cn2cc(C)c(=O)n(CC(=O)O)c2=O)C(C)C)C(C)C)cc1`, the Ratio in test [1] was 1.76e+06 M⁻¹ s⁻¹; in test [2], 44700 M⁻¹ s⁻¹; in test [3], 243000 M⁻¹ s⁻¹; in test [4], 280 M⁻¹ s⁻¹.

Take `CSc1ccc(OP(=O)(Oc2ccc(SC)cc2)[C@@H](NC(=O)[C@@H]2CCCN2C(=O)[C@@H](NC(=O)OC(C)(C)C)C(C)C)C(C)C)cc1`: the Ratio in test [1] is 431000 M⁻¹ s⁻¹; in test [2], 850 M⁻¹ s⁻¹; in test [3], 22300 M⁻¹ s⁻¹; in test [4], under 50 M⁻¹ s⁻¹.

With `CSc1ccc(OP(=O)(Oc2ccc(SC)cc2)[C@H](NC(=O)[C@@H]2CCCN2C(=O)[C@@H](NC(=O)COc2ccc(OCC(=O)O)cc2)C(C)C)C(C)C)cc1`, the Ratio in test [1] is 1550 M⁻¹ s⁻¹; in test [2] it was under 50 M⁻¹ s⁻¹; in test [3] it was 85 M⁻¹ s⁻¹; in test [4], under 50 M⁻¹ s⁻¹.

`CSc1ccc(OP(=O)(Oc2ccc(SC)cc2)[C@H](NC(=O)[C@@H]2CCCN2C(=O)[C@@H](NC(=O)Cn2cc(C)c(=O)n(CC(=O)O)c2=O)C(C)C)C(C)C)cc1`: the Ratio is 4100 M⁻¹ s⁻¹ in test [1], under 50 M⁻¹ s⁻¹ in test [2] and 300 M⁻¹ s⁻¹ in test [3]. Moreover, the inhibition in test [4] is under 5%.

With `CSc1ccc(OP(=O)(Oc2ccc(SC)cc2)[C@H](NC(=O)[C@@H]2CCCN2C(=O)[C@@H](NC(=O)Cn2ccc(=O)n(CC(=O)O)c2=O)C(C)C)C(C)C)cc1`, the figures for the Ratio in test [1], in test [2] and in test [3] were 2000 M⁻¹ s⁻¹, under 50 M⁻¹ s⁻¹ and 200 M⁻¹ s⁻¹, respectively. Moreover, the inhibition in test [4] was under 5%.

As for `CSc1ccc(OP(=O)(Oc2ccc(SC)cc2)[C@H](NC(=O)[C@@H]2CCCN2C(=O)[C@@H](NC(=O)OC(C)(C)C)C(C)C)C(C)C)cc1`, the Ratio is 2650 M⁻¹ s⁻¹ in test [1], under 50 M⁻¹ s⁻¹ in test [2] and under 50 M⁻¹ s⁻¹ in test [3]. Moreover, in test [4], the inhibition was under 5%.

For `CC[C@H](C)[C@H](NC(=O)OCc1ccccc1)C(=O)N1CCC[C@H]1C(=O)NC(C(C)C)P(=O)(Oc1ccc(SC)cc1)Oc1ccc(SC)cc1` (mixture of isomers), the Ratio in test [1] is 145000 M⁻¹ s⁻¹; in test [2], 1600 M⁻¹ s⁻¹; in test [3], 1800 M⁻¹ s⁻¹; in test [4], under 50 M⁻¹ s⁻¹.

For the molecule `CSCC[C@H](NC(=O)OCc1ccccc1)C(=O)N1CCC[C@H]1C(=O)NC(C(C)C)P(=O)(Oc1ccc(SC)cc1)Oc1ccc(SC)cc1` (mixture of isomers), the Ratio in test [1] is 223000 M⁻¹ s⁻¹; in test [2], 3700 M⁻¹ s⁻¹; in test [3], 6300 M⁻¹ s⁻¹; in test [4] it was under 50 M⁻¹ s⁻¹.

For the molecule `CSc1ccc(OP(=O)(Oc2ccc(SC)cc2)C(NC(=O)[C@@H]2CCCN2C(=O)[C@@H](NC(=O)OCc2ccccc2)C(C)C)C(C)C)cc1` (mixture of isomers), the Ratio in test [1] was 231000 M⁻¹ s⁻¹; in test [2] it was 4400 M⁻¹ s⁻¹; in test [3], 6200 M⁻¹ s⁻¹; in test [4], under 50 M⁻¹ s⁻¹.

In the case of `CSc1ccc(OP(=O)(Oc2ccc(SC)cc2)C(NC(=O)[C@@H]2CCCN2C(=O)[C@H](CC(C)C)NC(=O)OC(C)(C)C)C(C)C)cc1` (mixture of isomers), the Ratio in test [1] was 128000 M⁻¹ s⁻¹; in test [2], 150 M⁻¹ s⁻¹; in test [3] it was 7000 M⁻¹ s⁻¹; in test [4], under 50 M⁻¹ s⁻¹.

For `CSc1ccc(OP(=O)(Oc2ccc(SC)cc2)C(NC(=O)[C@@H]2CCCN2C(=O)[C@H](COC(C)(C)C)NC(=O)OCc2ccccc2)C(C)C)cc1` (mixture of isomers), the Ratio is 162000 M⁻¹ s⁻¹ in test [1], 500 M⁻¹ s⁻¹ in test [2], 4300 M⁻¹ s⁻¹ in test [3] and under 50 M⁻¹ s⁻¹ in test [4].
